Data set [1] concerns N2O emissions. Description: N2O emissions from potted lettuce in greenhouse soil, gas chamber sampling, GC-ECD. It is filed as in vivo, Green head lettuce. The settings on record: total cumulated N2O emissions, % inhibition compared to control; greenhouse 20° C., 60% humidity. Here is the method: Green head lettuce was seeded in seedling boxes. Once the 4 leaf stage was reached one plant was potted into a 8 cm pot in standard greenhouse soil (mixture of peat, loam and sand) and grown in the greenhouse at 20° C. and 60% humidity. One week after planting the plants, the pots were separated out and each pot set onto a plant saucer designed with an inner compartment for the pot and an outer ring that is filled with water. At time 0, water with or without various concentrations of fertilizer and with either empty formulation or formulated capsule suspensions was applied to the plant such that the water holding capacity of the soil was around 50%. Then a gas sampling chamber was placed over the plant saucer such that the rim fit into the ring filled with water to create a gas-tight chamber and 20 cc air from the chamber were drawn into a syringe and immediately emptied in to a Vacutainer (Labco, 12 ml volume). This equals the Time Zero measurement for each pot. The same procedure was performed with all pots in the experiment. After incubation time of 1 h, again 20 cc air samples were taken from the gas chambers and emptied into Vacutainers as described above. […]
Samples were analyzed in a Shimadzu 2014 GC equipped with an ECD system. Total cumulated N2O emissions were calculated and related by calculating the % inhibition compared to control.

A short description of data set [2]: Vapor pressure by thermogravimetry. It is filed as physicochemical. The settings on record: at 20° C.; Mettler Toledo STAR thermogravimeter. Here is the method:
The vapor pressure can be determined by thermogravimetry by methods known in the art. In the context of the present invention, a Mettler Toledo STAR thermogravimeter with 5 mg sample on a glass plate may be used. As a reference compound, 3,4-dimethyl pyrazole (DMP) was inter alia measured and a vapor pressure of 3.7 Pa at 20° C. was determined.

Structures are written as SMILES.

Broadly, the vapor pressure is the pressure of vapour in equilibrium with the condensed phase. Low values mean low volatility, high ones high volatility.

Turning to `C#CCOCc1ccc(Cl)cc1` [Example A-10], in data set [1], the “Inhibition (%) N2O emissions” value turned out to be 25%.

In turn, `Cc1cn[nH]c1C` [3,4-dimethyl pyrazole (DMP), 3,4-dimethyl pyrazole] came in with a vapor pressure in data set [2] of 3.7 Pa.
